Results taken from US8563540B2, “Pyrido[3,2-d]pyrimidine PI3K delta inhibitor compounds and methods of use” (Genetech, Inc., priority 2010, dated 2013).

Legend:
[1] = biological target: T1, p110 alpha (Homo sapiens, UniProt P42336); experiment: PI3K Isoform Inhibition Assay, p110 alpha (delta/alpha selectivity); details: ratio of biochemical IC50 values
T1 construct: purchased Upstate Group, Millipore; Dundee, UK
Experimental: (§1) PI3K enzymatic activity was assayed by measuring the amount of product phosphatidylinositol […] (PIP3) formed from substrate 4,5 phosphatidylinositol 4,5-phosphate (PIP2) using a fluorescence polarization displacement assay. The decrease in fluorescence polarization of a fluorescent PIP3 probe is measured as it is displaced from a PIP3-binding protein GRP-1 detector by PI3K-catalyzed product. […] The kinase reactions were initiated by the addition of 40 ng/mL p110α/p85α, 300 ng/mL p110β/p85α, 40 ng/mL p110γ, or 40 ng/mL […] (Upstate Group, Millipore; Dundee, UK), and 10 μM PIP2 (Echelon Biosciences) to the wells. […] After 60 minutes of incubation at room temperature to allow equilibration of labeled and unlabeled PIP3 binding, the parallel and perpendicular components of the fluorescence emissions from each sample were measured at an excitation wavelength of 530 nm and an emission wavelength of 590 nm using an Envision fluorescent plate reader with a rhodamine filter (PerkinElmer Life and Analytical Sciences; Wellesley, Mass.). The assay is capable of detecting 0.1-2.0 μM PIP3 product. The IC50 values were obtained by fitting the dose-dependent inhibition data to a 4-parameter equation using Assay Explorer software (MDL, San Ramon, Calif.).
(§2) The Formula I compound was serially diluted in 100% DMSO. The kinase reaction was incubated for 1 h at room temperature, and the reaction was terminated by the addition of PBS. IC50 values were subsequently determined using sigmoidal dose-response curve fit (variable slope).
The same protocol may be used to establish IC50 values for p110α (alpha) PI3K binding. […]

[2] = test system: production of CD69 by B lymphocytes in human whole blood activated with anti-human IgM; experiment: CD69 Whole Blood Assay; format: cell-based; details: Lymphocyte, anti-IgM stimulated, CD69 positive of CD20 positive cells, 20 hours
Experimental: Human blood is obtained from healthy volunteers, with the following restrictions: 1 week drug-free, non-smokers.
Human whole blood—HWB (100 μl) is added to each well. After mixing the plates are incubated at 37° C., 5% CO2, 100% humidity for 30 minutes. Goat F(ab′)2 anti-human IgM (10 μl of a 500 μg/ml solution, 50 μg/ml final) is added to each well (except the no-stimulus wells) with mixing and the plates are incubated for an additional 20 hours. […] Include induced control, unstained and single stains for compensation adjustments and initial voltage settings. […] Results are initially analyzed by FACS analysis software (Flow Jo).

[3] = biological target: T2, p110 delta (Homo sapiens, UniProt O00329); experiment: PI3K Isoform Inhibition Assay, p110 delta; format: biochemical; details: PI3K isoform inhibition assay of Example 901
T2 construct: purchased Upstate Group, Millipore; Dundee, UK
T2 sequence (O00329 whole entry, canonical isoform): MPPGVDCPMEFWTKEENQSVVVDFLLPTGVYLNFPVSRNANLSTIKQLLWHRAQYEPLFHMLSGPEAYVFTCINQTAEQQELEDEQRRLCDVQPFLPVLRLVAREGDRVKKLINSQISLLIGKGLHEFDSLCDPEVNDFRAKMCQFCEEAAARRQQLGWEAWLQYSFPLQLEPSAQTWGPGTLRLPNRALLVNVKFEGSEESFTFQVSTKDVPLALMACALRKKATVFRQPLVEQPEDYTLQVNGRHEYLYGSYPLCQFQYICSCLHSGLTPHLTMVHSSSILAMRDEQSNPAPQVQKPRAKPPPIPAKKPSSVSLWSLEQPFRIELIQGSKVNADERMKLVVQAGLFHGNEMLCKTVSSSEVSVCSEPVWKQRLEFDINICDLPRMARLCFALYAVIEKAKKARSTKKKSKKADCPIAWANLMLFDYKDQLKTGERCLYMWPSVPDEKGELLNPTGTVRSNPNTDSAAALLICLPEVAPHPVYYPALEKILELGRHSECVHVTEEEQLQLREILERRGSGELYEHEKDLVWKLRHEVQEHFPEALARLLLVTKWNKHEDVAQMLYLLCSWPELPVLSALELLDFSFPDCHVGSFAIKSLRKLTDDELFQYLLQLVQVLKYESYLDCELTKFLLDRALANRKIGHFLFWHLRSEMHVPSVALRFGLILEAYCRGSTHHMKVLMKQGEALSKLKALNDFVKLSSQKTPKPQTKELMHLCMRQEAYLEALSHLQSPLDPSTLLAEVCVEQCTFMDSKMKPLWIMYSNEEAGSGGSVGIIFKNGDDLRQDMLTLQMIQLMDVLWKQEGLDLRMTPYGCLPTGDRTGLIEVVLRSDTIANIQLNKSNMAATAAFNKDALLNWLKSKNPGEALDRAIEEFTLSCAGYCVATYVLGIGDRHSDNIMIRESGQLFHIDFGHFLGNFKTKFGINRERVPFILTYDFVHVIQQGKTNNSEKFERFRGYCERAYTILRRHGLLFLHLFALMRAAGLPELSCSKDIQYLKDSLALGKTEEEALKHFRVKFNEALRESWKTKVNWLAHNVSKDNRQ
T2 sequence (P27986 whole entry partner, canonical isoform): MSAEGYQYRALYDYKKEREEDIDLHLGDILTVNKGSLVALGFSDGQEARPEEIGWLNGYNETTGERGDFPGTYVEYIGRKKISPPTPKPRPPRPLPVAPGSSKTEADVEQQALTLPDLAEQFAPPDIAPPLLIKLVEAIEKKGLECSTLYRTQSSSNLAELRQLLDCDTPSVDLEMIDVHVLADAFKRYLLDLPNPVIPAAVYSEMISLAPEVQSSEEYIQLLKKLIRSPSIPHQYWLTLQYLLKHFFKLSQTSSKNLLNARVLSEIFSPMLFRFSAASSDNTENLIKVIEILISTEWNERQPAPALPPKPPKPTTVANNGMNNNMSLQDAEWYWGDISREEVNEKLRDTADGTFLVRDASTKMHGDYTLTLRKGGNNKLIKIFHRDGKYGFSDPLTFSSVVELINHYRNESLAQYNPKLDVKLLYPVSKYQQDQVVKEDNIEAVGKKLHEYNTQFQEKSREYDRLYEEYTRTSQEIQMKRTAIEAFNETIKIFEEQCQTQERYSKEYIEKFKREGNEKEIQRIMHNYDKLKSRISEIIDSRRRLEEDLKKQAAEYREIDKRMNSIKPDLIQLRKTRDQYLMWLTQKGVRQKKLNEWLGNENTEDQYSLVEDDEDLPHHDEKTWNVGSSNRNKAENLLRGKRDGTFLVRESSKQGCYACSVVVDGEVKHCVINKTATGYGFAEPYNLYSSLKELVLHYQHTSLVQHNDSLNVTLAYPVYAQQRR
Experimental: as §1, §2
The four Class I PI 3-kinases are cloned into baculovirus vectors as follows: […]

T1 sequence (P42336 whole entry, canonical isoform): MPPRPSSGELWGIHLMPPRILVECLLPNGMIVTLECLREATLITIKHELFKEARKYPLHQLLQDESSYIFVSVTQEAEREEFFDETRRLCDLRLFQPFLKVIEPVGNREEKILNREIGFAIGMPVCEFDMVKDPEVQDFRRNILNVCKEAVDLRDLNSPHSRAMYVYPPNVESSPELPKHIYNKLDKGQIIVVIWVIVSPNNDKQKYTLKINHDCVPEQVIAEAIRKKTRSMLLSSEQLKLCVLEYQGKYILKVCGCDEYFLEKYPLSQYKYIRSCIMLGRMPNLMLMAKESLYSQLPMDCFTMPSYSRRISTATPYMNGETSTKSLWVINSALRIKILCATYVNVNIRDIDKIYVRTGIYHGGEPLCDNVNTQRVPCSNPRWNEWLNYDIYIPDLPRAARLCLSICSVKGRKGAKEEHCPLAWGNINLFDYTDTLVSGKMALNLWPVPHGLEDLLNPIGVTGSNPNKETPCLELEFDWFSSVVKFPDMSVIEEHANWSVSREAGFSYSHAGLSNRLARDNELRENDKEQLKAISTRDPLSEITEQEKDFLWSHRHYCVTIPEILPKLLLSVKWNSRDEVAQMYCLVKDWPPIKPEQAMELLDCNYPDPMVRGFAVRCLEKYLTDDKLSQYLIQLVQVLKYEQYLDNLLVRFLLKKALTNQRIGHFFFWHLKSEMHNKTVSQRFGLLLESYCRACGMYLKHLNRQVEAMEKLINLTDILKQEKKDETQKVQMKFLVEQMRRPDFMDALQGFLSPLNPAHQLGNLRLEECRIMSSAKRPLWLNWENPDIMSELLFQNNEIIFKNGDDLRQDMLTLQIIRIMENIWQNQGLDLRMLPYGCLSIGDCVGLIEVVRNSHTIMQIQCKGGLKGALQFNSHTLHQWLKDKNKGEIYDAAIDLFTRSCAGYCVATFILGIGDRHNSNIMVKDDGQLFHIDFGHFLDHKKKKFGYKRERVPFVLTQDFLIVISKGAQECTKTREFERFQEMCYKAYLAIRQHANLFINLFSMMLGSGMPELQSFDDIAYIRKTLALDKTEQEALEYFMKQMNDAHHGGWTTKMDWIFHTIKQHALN
T1 sequence (P27986 whole entry partner, canonical isoform): as the sequence (P27986 whole entry partner, canonical isoform) above

Row | Compound | IC50 p110 alpha/IC50 p110 delta [1] | IC50 [2] [nM] | IC50 [3] [nM]
1 | CC(C)c1nc2ccccc2n1-c1nc(N2CCOCC2)c2nc(CN3CCC(C(C)(C)O)CC3)ccc2n1 [Compound 112, 2-(1-((2-(2-isopropyl-1H-benzo[d]imidazol-1-yl)-4-morpholinopyrido[3,2-d]pyrimidin-6-yl)methyl)piperidin-4-yl)propan-2-ol] | 44 | 83.8 | 5.33
2 | CO[C@@H](C)c1nc2ccccc2n1-c1nc(N2CCOCC2)c2nc(CN3CCC(C(C)(C)O)CC3)ccc2n1 [Compound 114, (S)-2-(1-((2-(2-(1-methoxyethyl)-1H-benzo[d]imidazol-1-yl)-4-morpholinopyrido[3,2-d]pyrimidin-6-yl)methyl)piperidin-4-yl)propan-2-ol] | 53 | 12 | 1.78
3 | Fc1ccc2[nH]ccc2c1-c1ccc2nc(N3CCOCC3)nc(N3CCOCC3)c2n1 [Compound 159, 4,4′-(6-(5-fluoro-1H-indol-4-yl)pyrido[3,2-d]pyrimidine-2,4-diyl)dimorpholine] | 1.4 |  | 873
4 | CC(C)(O)C1CCN(C(=O)c2ccc3nc(-c4c(F)ccc5[nH]ccc45)nc(N4CCOCC4)c3n2)CC1 [Compound 118, (2-(5-fluoro-1H-indol-4-yl)-4-morpholinopyrido[3,2-d]pyrimidin-6-yl)(4-(2-hydroxypropan-2-yl)piperidin-1-yl)methanone] | 77 |  | 13
5 | O=S1(=O)CCN(C2CN(Cc3ccc4nc(-c5c(F)ccc6[nH]ccc56)nc(N5CCOCC5)c4n3)C2)CC1 [Compound 129, 4-(2-(5-fluoro-1H-indol-4-yl)-6-((3-(1,1-dioxo)thiomorpholinoazetidin-1-yl)methyl)pyrido[3,2-d]pyrimidin-4-yl)morpholine] | 440 |  | 0.845
6 | OCc1ccc2nc(-c3c(F)ccc4[nH]ccc34)nc(N3CCOCC3)c2n1 [Compound 108, (2-(5-fluoro-1H-indol-4-yl)-4-morpholinopyrido[3,2-d]pyrimidin-6-yl)methanol] | 13.5 |  | 26.5
7 | CC(C)(O)C1CCN(Cc2ccc3nc(-c4c[nH]c5ccccc45)nc(N4CCOCC4)c3n2)CC1 [Compound 133, 2-(1-((2-(1H-indol-3-yl)-4-morpholinopyrido[3,2-d]pyrimidin-6-yl)methyl)piperidin-4-yl)propan-2-ol] | 22 |  | 23.8
8 | CC(C)(O)C1CCN(Cc2ccc3nc(-c4cnc(N)nc4)nc(N4CCOCC4)c3n2)CC1 [Compound 107, 2-(1-((2-(2-aminopyrimidin-5-yl)-4-morpholinopyrido[3,2-d]pyrimidin-6-yl)methyl)piperidin-4-yl)propan-2-ol] | 5.4 |  | 2.57
